The source of these data is patent publication USRE39420E1, “1,2-Diphenylpyrrole derivatives, their preparation and their therapeutic uses” (Sankyo Company, Limited, priority 1996, dated 2006).

Molecules are shown by their SMILES. A value given as a limit tells only on which side of the number the result lay.

The test system of data set [1] is yeast-inflamed pain in rats. As to the kind of experiment: Analgesic effect on yeast-inflamed pain in rats (Randall-Selitto method). Type of data set: in vivo, Wistar-Imamichi rats. The following applies: Rattus norvegicus, oral, pain threshold 0.5, 1 and 2 hours after administration, read-out: Efficacy Rate (No. of animals in which drug was effective/No. of animals used in test) (converted). The method, then: The compound was suspended in 0.5%tragacanth and administered orally at a volume of 5 ml/kg. The control group was administered with 0.5% tragacanth only as a vehicle.
Wistar-Imamichi rats (males, 5 week old, body weights: 80-100 g) were used in this test.
The test was conducted in accordance with the method of Winter and Flataker [J. Pharmacol. Exp. Ther. 150, 165-171, (1965)], which is a modification of the original method of Randall and Selitto [Arch. Int. Pharmacodyn. Ther. 111, 405-419, (1957)]. The rats were fasted for 16 hours prior to use. Inflammation was induced by subcutaneous injection of 0.1 ml of a suspension of 20% beer yeast (Sigma) into the right hind footpad of the animal. After 4.5 hours, increasing pressure was applied to the inflamed footpad at a constant speed using an Analgesy meter (Trade mark) (Ugo-Basile Co.).
First the average of pain threshold values at each time point (0.5, 1, and 2 hr) was calculated in a control group. If a pain threshold value exceeded 2 times the control average value at the same time point even once in the drug-treated groups, then the animal was considered to indicate efficacy. Efficacy rates of the drug were estimated by the evaluation method of Blake [J. Pharm. Pharm. 19, 367-373, (1967)].

Data set [2] relates to IL-1β production in human peripheral monocytes. The data set is described as follows: Inhibitory effect on IL-1β production in LPS-stimulated human peripheral monocytes. The data set is classed as cell-based. The following applies: Monocyte, LPS 10 μg/ml, 20 hours. Here is the method: (§1) (1) Peripheral blood was collected from healthy human volunteers in the presence of heparin. After mixing it with an equal volume of phosphate-buffered saline (PBS, Nissui Pharmaceutical), the mixture was layered onto Ficoll Paque medium (Pharmacia) at the rate of 2:1 and centrifuged at 520×g at 25° C. for 20 minutes. After centrifugation, the monocyte layer was removed and suspended in RPMI 1640 (Nissui Pharmaceutical) containing 10% fetal calf serum (FCS). The monocytes were washed once with the same medium, placed in a plastic Petri dish, pre-treated with human plasma and incubated for 2 hours in the presence of 5% CO2 to cause them to adhere to the dish. After incubation, the Petri dish was washed twice with PBS to remove the non-adherent cells. Thereafter, PBS containing 5% FCS and 0.2% EDTA was added to the Petri dish and the dish was allowed to stand undisturbed for 15 minutes at 4° C. The monocytes were recovered from the dish by pipetting. The cells were finally suspended in RPMI 1640 at a concentration of 1.25×10^5 cells/ml. (2) Culture of Human Monocytes
(§2) A 40 μl solution of the test compound and 40 μl of lipopolysaccharide (LPS; E. coli, 0.26:B6, Difco), adjusted to a final concentration of 10 μg/ml, were added to 320 μl of cell suspension. The resulting mixture was then cultured for 20 hours in the presence of 5% CO2 and the supernatant was removed at the end of cultivation to assay IL-1β and TNFα. The test compound was dissolved in dimethyl sulfoxide and diluted by a factor of 100 with FCS to reach 10 times the final concentration (the final concentrations of dimethyl sulfoxide and FCS were 0.1% and 10%, respectively).
(§3) The amount of IL-1β was measured with a commercially available ELISA kit (Cayman), after diluting the supernatant medium by a factor of 15 or 30 with the ELISA buffer. The amount of TNFα was similarly measured by a ELISA kit (Genzyme) after diluting the supernatant by a factor of 2.
(§4) The IC50 was calculated from the regression line determined by the inhibition rates and the concentrations of the test compound.

The subject of data set [3] is Carrageenan-induced Paw Edema in rats. As to the kind of experiment: Carrageenan-induced paw edema test. Type of data set: in vivo, Wistar-Imamichi rats. The following applies: Rattus norvegicus, oral, 3 hours after carrageenan, read-out: Inhibition Rate (%). Here is the method:
The same test compounds were subjected to the test as those in the Randall-Selitto test of Experiment 3. Wistar-Imamichi rats (males, 6 week old, body weights: 110-120 g) were used in this test.
The method of Winter, et al. [Proc. Soc. Exp. Biol. Med. 111, 544-547, (1962)] was slightly modified to perform the test [Sankyo Annual Research Report 39, 77-111, (1989)]. The rats were fasted for 16 hours prior to use. Inflammatory edema was induced by the subcutaneous injection of 0.05 ml of a 1% carrageenan (Viscarin 402) solution into the right hind paw of the animal. The test compounds were administered orally 30 minutes before injection of carrageenan. The volume of the right hind foot was measured with a Plethysmometer (Trade mark) (Ugo-Basile Co.) just before administration of the test compound and 3 hours after injection of carrageenan to determine the edema intensity [(right foot volume after 3 hours/right foot volume before injection)-1].

The test system of data set [4] is TNFα production in human peripheral monocytes. The data set is described as follows: Inhibitory effect on TNFα production in LPS-stimulated human peripheral monocytes. The data set is classed as cell-based. The following applies: Monocyte, LPS 10 μg/ml, 20 hours. The method, then:
as §1, §2, §3, §4

For the next data set, the system named is gastric mucosa. As to the kind of experiment: Irritative effect on gastric mucosa. The data set is classed as in vivo, Wistar rats. Particulars: oral; dose producing 50% incidence of gastric ulcers, 3.5 hours after dosing. Here is the method:
Experiments were performed according to the method described by Jahn and Adrian [Arzneim.-Forsch. 19, 36, (1969)]. Male Wistar rats weighing approximately 120 g were fasted for 16 hours before the experiment. The drugs were administered orally to rats as described in Experiment 3. Three and the half hours after dosing, the animals were killed under ether-anesthesia and the stomachs were placed into 1% of formalin. The stomach was opened by cutting along the greater curvature and the number and length of lesions were counted under a microscope (6.3×10). The ulcerogenicity in each animal was assessed according to Hitchens et. al. [Pharmacologist 9, 242, (1967)]. Incidence was determined as the rate of rats with 4 or more ulcers of more than 0.5 mm length, and UD50's (doses producing 50% incidence) were calculated from the incidence and the dose by probit (=probability unit) method.

In data set [5] the test system is scald-induced Pain in rats. The data set is described as follows: Scald-induced pain test. The data set is classed as in vivo, Wistar-Imamichi rats. Particulars: oral; pain response time, mean of 1 and 2 hours after dosing. Here is the method: The test was conducted in accordance with the method of Iizuka and Tanaka [Jpn. J. Pharmacol. 70, 697, (1967)]. The test compound was administered in the same manner as in Experiment 3. Male Wistar-Imamichi rats (4-5 week old, body weights: approximately 100 g) were used after fasting for 16 hours. The right hind foot of the animal was immersed in hot water at 57° C. for 6 seconds to induce scald under ether-anesthesia. Two hours later, the scald foot of the rat was irritated by immersing in hot water at 40° C. for 5 seconds, and the animal was returned to the cage. […] Lifting up the scalded foot or licking it without coming in contact with the metal cage were considered to be pain responses. Pain response time was determined as the total time of the pain response during the 30-second observation period. […] Pain response time was again measured 1 and 2 hours after dosing and the mean value was determined. Using the mean values, inhibition rates were calculated relative to the control group. ID50 was calculated from the regression line determined by the inhibition rates and the doses.

The next data set relates to yeast-induced fever. The data set is described as follows: Antipyretic effect on yeast-induced fever. Particulars: Dose: 0.4 mg/kg, oral; mean of 1 and 2 hours after dosing. Type of data set: in vivo, Wistar-Imamichi rats. The method, then: The method of Roszkowski et al. [J. Pharmacol. Exp. Ther. 179, 114, (1971)] was slightly modified to perform the test. The test compound was administered in the same manner as in Experiment 3. Male Wistar-Imamichi rats (6 week old, body weights: approximately 120 g) were used in the test. Yeast (Brewer's yeast, Sigma) was suspended in physiological saline to a concentration of 25%, finely crushed in an agate mortar, and injected subcutaneously into the backs of the rats under ether-anesthesia at a volume of 2 ml/rat. The rats were fasted after the injection of yeast. On the following day (19 hours after the yeast injection), a catheter-type thermistor thermometer (Japan Koden, MGA III) was inserted approximately 5 cm into the rectum to measure the temperature of the animals. […] Rectal temperatures were measured 1 and 2 hours after administration of the test compound, and fever temperature was calculated by subtracting the normal temperature of healthy animals measured simultaneously. Inhibition rate of the group treated with the compound relative to the control group was calculated by using the mean value at 1 and 2 hours after dosing.

Data set [6] concerns LTB4 production from human peripheral monocytes. As to the kind of experiment: Inhibitory effect on LTB4 production from human peripheral monocytes. Type of data set: cell-based. Particulars: Monocyte, LTB4 in culture supernatant, ELISA. The method, then:
The isolation of monocytes was carried out as described in Experiment 2-(1).
The cell culture was carried out as described in Experiment 2-(2).
The supernatant of the culture medium after incubation was subjected to the ELISA assay (Cayman). IC50 values were calculated by the least square method from the regression line determined by the inhibition rates and the doses.

`CS(=O)(=O)c1ccc(-c2cccn2-c2ccc(F)cc2F)cc1` [Example 7, 1-(2,4-Difluorophenyl)-2-(4-methylsulfonylphenyl) pyrrole]: the responders at 12.5 mg/kg in data set [1] is 100%. Besides, 10 µM produced 42.6% inhibition in [2]. Moreover, the inhibition in vivo at 50 mg/kg in data set [3] came out at 56%.

Consider `CS(=O)(=O)c1ccc(-c2ccc(F)n2-c2ccc(F)cc2)cc1` [Example 41, 5-Fluoro-1-(4-fluorophenyl)-2-(4-methylsulfonylphenyl)pyrrole], for which the inhibition (commonly the share of the control response that was lost under treatment) at 10 µM in [2] turned out to be 51.2%. For the same compound, in data set [3], the inhibition in vivo at 50 mg/kg was determined as 60%.

On to `CS(=O)(=O)c1ccc(-c2ccc(C(F)(F)F)n2-c2ccc(F)cc2)cc1` [Example 44, 5-Trifluoromethyl-1-(4-fluorophenyl)-2-(4-methylsulfonylphenyl)pyrrole], for which the melting point (as a rule, the temperature of the solid-liquid transition) was 136 to 139 °C.

In data set [4], `CS(=O)(=O)c1ccc(-c2cc(C(F)F)cn2-c2ccc(F)cc2)cc1` [Example 49, 1-(4-Fluorophenyl)-4-difluoromethyl-2-(4-methylsulfonylphenyl)pyrrole] registered an inhibition at 10 µM of 40.9%.

In turn, `COc1ccc(-n2cccc2-c2ccc(S(C)(=O)=O)cc2)cc1F` [Example 54, 1-(3-Fluoro-4-methoxyphenyl)-2-(4-methylsulfonylphenyl)pyrrole] yielded an inhibition at 10 µM in data set [4] of 54.7%.

Consider `CCOc1ccc(-c2cc(C)cn2-c2ccc(S(N)(=O)=O)cc2)cc1` [Example 67, 2-(4-Ethoxyphenyl)-4-methyl-1-(4-sulfamoylphenyl) pyrrole], for which the “UD50” value in the data set with gastric mucosa is on record as over 100 mg/kg. In [1], the responders at 12.5 mg/kg was 100%. Also, the “ID50” value in data set [5] came out at 1.6 mg/kg. Besides, the inhibition in vivo at 50 mg/kg in data set [3] was 64%. Also, in the data set on yeast-induced fever, the “Inhibition Rate (%)” value came out at 78%.

`CCCOc1ccc(-c2cc(C)cn2-c2ccc(S(N)(=O)=O)cc2)cc1` [Example 68, 4-Methyl-2-(4-propoxyphenyl)-1-(4-sulfamoylphenyl)pyrrole] returned an inhibition at 10 µM in data set [4] of 42.6%.

As to `Cc1cc(-c2ccc(C)c(C)c2)n(-c2ccc(S(N)(=O)=O)cc2)c1` [Example 78, 4-Methyl-2-(3,4-dimethylphenyl)-1-(4-sulfamoylphenyl)pyrrole], the “UD50” value with gastric mucosa was over 100 mg/kg. The IC50 (usually the midpoint of a concentration-inhibition curve) in data set [6] turned out to be 0.31 µM. For the same compound, in data set [1], the responders at 12.5 mg/kg was 100%. Moreover, the inhibition in vivo at 50 mg/kg in [3] is 66%.

For the compound `COc1ccc(-c2cc(Cc3ccc(OC)c(OC4CCCC4)c3)cn2-c2ccc(S(N)(=O)=O)cc2)cc1` [Example 81, 4-(3-Cyclopentyloxy-4-methoxybenzyl)-2-(4-methoxyphenyl)-1-(4-sulfamoylphenyl)pyrrole], at 10 µM the inhibition in data set [4] was 46.1%.

Regarding `CSc1ccc(-n2cc(C)cc2-c2ccc(S(N)(=O)=O)cc2)cc1` [Example 84, 4-Methyl-1-(4-methylthiophenyl)-2-(4-sulfamoylphenyl)pyrrole], the “UD50” value with gastric mucosa is listed as over 100 mg/kg. Moreover, the responders at 12.5 mg/kg in data set [1] was 100%. In addition, in [3], the inhibition in vivo at 50 mg/kg is 66%. For the same compound, the “Inhibition Rate (%)” value with yeast-induced fever worked out at 64%.

Turning to `CSc1ccc(-n2c(C)ccc2-c2ccc(S(N)(=O)=O)cc2)cc1` [Example 90, 5-Methyl-1-(4-methylthiophenyl)-2-(4-sulfamoylphenyl)pyrrole], in [2], 10 µM produced 62.2% inhibition. Further, the inhibition in vivo at 50 mg/kg in data set [3] worked out at 64%.
